Test in all cases: relative viability (nuclei count vs DMSO), 5 days (fraction); higher = more cells survive
Compound in the test “Bemcentinib + Pemetrexed”: Nc1nc(Nc2ccc3c(c2)CC[C@@H](N2CCCC2)CC3)nn1-c1cc2c(nn1)-c1ccccc1CCC2 [Bemcentinib] + Nc1nc2[nH]cc(CCc3ccc(C(=O)N[C@@H](CCC(=O)O)C(=O)O)cc3)c2c(=O)[nH]1 [Pemetrexed] (partner 0.2 µM)
Summed up:
(§1)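 A single step with final 0.05% Triton X-100, 1% formaldehyde and 1 ug/ml Hoechst fixed the cells and stained nuclei 5 days after treatment. Lung cancer cell lines in 1536-well plates had been treated by pin tool the day after seeding with one drug alone or a fixed anchor-drug dose plus five library-drug doses (not always all listed) in √10 steps, and nuclei were counted on 4× images. Relative viability is the ratio of nuclei in treated wells to nuclei in vehicle wells, taken as the median of duplicate plates.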

Compound in the test “Bemcentinib + Foretinib”: Nc1nc(Nc2ccc3c(c2)CC[C@@H](N2CCCC2)CC3)nn1-c1cc2c(nn1)-c1ccccc1CCC2 [Bemcentinib] + COc1cc2c(Oc3ccc(NC(=O)C4(C(=O)Nc5ccc(F)cc5)CC4)cc3F)ccnc2cc1OCCCN1CCOCC1 [Foretinib] (partner 0.25 µM)
In outline: as §1

Compound in the test “Bemcentinib + Navitoclax”: Nc1nc(Nc2ccc3c(c2)CC[C@@H](N2CCCC2)CC3)nn1-c1cc2c(nn1)-c1ccccc1CCC2 [Bemcentinib] + CC1(C)CCC(c2ccc(Cl)cc2)=C(CN2CCN(c3ccc(C(=O)NS(=O)(=O)c4ccc(N[C@H](CCN5CCOCC5)CSc5ccccc5)c(S(=O)(=O)C(F)(F)F)c4)cc3)CC2)C1 [Navitoclax] (partner 0.5 µM)
Summed up: as §1

Compound in the test “Bemcentinib + Dasatinib”: Nc1nc(Nc2ccc3c(c2)CC[C@@H](N2CCCC2)CC3)nn1-c1cc2c(nn1)-c1ccccc1CCC2 [Bemcentinib] + Cc1nc(Nc2ncc(C(=O)Nc3c(C)cccc3Cl)s2)cc(N2CCN(CCO)CC2)n1 [Dasatinib] (partner 0.075 µM)
Summed up: as §1

Experimental findings from the supplement of paper PMC10307832 are described below.

As to 201T, the relative viability in the test with Bemcentinib + Pemetrexed (first compound 0.04 µM) is 0.307; with Bemcentinib + Pemetrexed (first compound 0.1265 µM), 0.361; in the test with Bemcentinib + Pemetrexed (first compound 0.4 µM) it was 0.326; with Bemcentinib + Pemetrexed (first compound 1.265 µM), 0.361; with Bemcentinib + Pemetrexed (first compound 4 µM) it was 0.327; with Bemcentinib + Foretinib (first compound 0.04 µM) it was 1.07. Also, the relative viability with Bemcentinib + Foretinib (first compound 0.1265 µM) came to 1.33; in the test with Bemcentinib + Foretinib (first compound 0.4 µM), 1.24; with Bemcentinib + Foretinib (first compound 1.265 µM) it was 1.12; with Bemcentinib + Foretinib (first compound 4 µM) it was 1.11; in the test with Bemcentinib + Navitoclax (first compound 0.04 µM) it was 1.17; with Bemcentinib + Navitoclax (first compound 0.1265 µM), 1.24. Besides, the relative viability in the test with Bemcentinib + Navitoclax (first compound 0.4 µM) was found to be 1.21; in the test with Bemcentinib + Navitoclax (first compound 1.265 µM), 1.24; with Bemcentinib + Navitoclax (first compound 4 µM), 1.3; with Bemcentinib + Dasatinib (first compound 0.04 µM), 0.559; in the test with Bemcentinib + Dasatinib (first compound 0.1265 µM), 0.676; with Bemcentinib + Dasatinib (first compound 0.4 µM), 0.591. For the same cell line, the relative viability was 0.613 with Bemcentinib + Dasatinib (first compound 1.265 µM) and 0.57 with Bemcentinib + Dasatinib (first compound 4 µM).
As to A549, the relative viability stood at 0.95 with Bemcentinib + Foretinib (first compound 0.04 µM); 1.03 with Bemcentinib + Foretinib (first compound 0.1265 µM); 0.977 with Bemcentinib + Foretinib (first compound 0.4 µM); 1.08 with Bemcentinib + Foretinib (first compound 1.265 µM); 1.11 with Bemcentinib + Foretinib (first compound 4 µM); 1.2 in the test with Bemcentinib + Navitoclax (first compound 0.04 µM). Moreover, the relative viability with Bemcentinib + Navitoclax (first compound 0.1265 µM) was 1.27; with Bemcentinib + Navitoclax (first compound 0.4 µM) it was 1.32; with Bemcentinib + Navitoclax (first compound 1.265 µM), 1.29; in the test with Bemcentinib + Navitoclax (first compound 4 µM) it was 1.2.
Turning to A-427, the relative viability is 0.966 with Bemcentinib + Pemetrexed (first compound 0.04 µM); 1.02 with Bemcentinib + Pemetrexed (first compound 0.1265 µM); 1.08 with Bemcentinib + Pemetrexed (first compound 0.4 µM); 0.928 with Bemcentinib + Pemetrexed (first compound 1.265 µM); 0.936 with Bemcentinib + Pemetrexed (first compound 4 µM); 1.09 with Bemcentinib + Foretinib (first compound 0.04 µM). In addition, the relative viability with Bemcentinib + Foretinib (first compound 0.1265 µM) stood at 1.1; with Bemcentinib + Foretinib (first compound 0.4 µM), 1.24; with Bemcentinib + Foretinib (first compound 1.265 µM) it was 1.06; in the test with Bemcentinib + Foretinib (first compound 4 µM), 1.19; with Bemcentinib + Navitoclax (first compound 0.1265 µM), 0.946; in the test with Bemcentinib + Navitoclax (first compound 0.4 µM) it was 0.826. In addition, the relative viability with Bemcentinib + Navitoclax (first compound 1.265 µM) was found to be 0.909; with Bemcentinib + Navitoclax (first compound 4 µM), 1.07; with Bemcentinib + Dasatinib (first compound 0.04 µM), 0.719; with Bemcentinib + Dasatinib (first compound 0.1265 µM), 0.737; in the test with Bemcentinib + Dasatinib (first compound 0.4 µM), 0.68; with Bemcentinib + Dasatinib (first compound 1.265 µM), 0.707. The relative viability with Bemcentinib + Dasatinib (first compound 4 µM) stood at 0.691.
In the case of ABC-1, the relative viability with Bemcentinib + Foretinib (first compound 0.04 µM) amounted to 1.05; in the test with Bemcentinib + Foretinib (first compound 0.1265 µM) it was 1.18; with Bemcentinib + Foretinib (first compound 0.4 µM) it was 1; in the test with Bemcentinib + Foretinib (first compound 1.265 µM), 0.899; with Bemcentinib + Foretinib (first compound 4 µM), 0.897; in the test with Bemcentinib + Dasatinib (first compound 0.04 µM), 0.423. For the same cell line, the relative viability with Bemcentinib + Dasatinib (first compound 0.1265 µM) was found to be 0.512; with Bemcentinib + Dasatinib (first compound 0.4 µM), 0.59; in the test with Bemcentinib + Dasatinib (first compound 1.265 µM), 0.553; in the test with Bemcentinib + Dasatinib (first compound 4 µM), 0.667.
With BEN, the relative viability was found to be 0.62 with Bemcentinib + Pemetrexed (first compound 0.04 µM); 0.895 with Bemcentinib + Pemetrexed (first compound 0.1265 µM); 0.782 with Bemcentinib + Pemetrexed (first compound 0.4 µM); 0.678 with Bemcentinib + Pemetrexed (first compound 1.265 µM); 0.592 with Bemcentinib + Pemetrexed (first compound 4 µM); 0.562 in the test with Bemcentinib + Foretinib (first compound 0.04 µM). Also, the relative viability worked out at 0.731 in the test with Bemcentinib + Foretinib (first compound 0.1265 µM); 0.711 with Bemcentinib + Foretinib (first compound 0.4 µM); 0.612 with Bemcentinib + Foretinib (first compound 1.265 µM); 0.635 in the test with Bemcentinib + Foretinib (first compound 4 µM); 0.0583 with Bemcentinib + Navitoclax (first compound 0.04 µM); 0.0756 in the test with Bemcentinib + Navitoclax (first compound 0.1265 µM). Besides, the relative viability stood at 0.0599 in the test with Bemcentinib + Navitoclax (first compound 0.4 µM); 0.055 with Bemcentinib + Navitoclax (first compound 1.265 µM); 0.0552 with Bemcentinib + Navitoclax (first compound 4 µM); 0.272 with Bemcentinib + Dasatinib (first compound 0.04 µM); 0.37 in the test with Bemcentinib + Dasatinib (first compound 0.1265 µM); 0.317 with Bemcentinib + Dasatinib (first compound 0.4 µM). Besides, the relative viability was 0.22 with Bemcentinib + Dasatinib (first compound 1.265 µM) and 0.241 in the test with Bemcentinib + Dasatinib (first compound 4 µM).
For CAL-12T, the relative viability with Bemcentinib + Pemetrexed (first compound 0.04 µM) was 1.11; with Bemcentinib + Pemetrexed (first compound 0.1265 µM), 1.47; in the test with Bemcentinib + Pemetrexed (first compound 0.4 µM), 1.09; with Bemcentinib + Pemetrexed (first compound 1.265 µM), 1.1; with Bemcentinib + Pemetrexed (first compound 4 µM) it was 1.13; in the test with Bemcentinib + Foretinib (first compound 0.04 µM), 1.17. Further, the relative viability amounted to 1.1 with Bemcentinib + Foretinib (first compound 0.1265 µM); 0.97 in the test with Bemcentinib + Foretinib (first compound 0.4 µM); 1.11 in the test with Bemcentinib + Foretinib (first compound 1.265 µM); 1.07 in the test with Bemcentinib + Foretinib (first compound 4 µM); 1.12 in the test with Bemcentinib + Navitoclax (first compound 0.04 µM); 1.28 with Bemcentinib + Navitoclax (first compound 0.1265 µM). Moreover, the relative viability with Bemcentinib + Navitoclax (first compound 0.4 µM) amounted to 1.25; with Bemcentinib + Navitoclax (first compound 1.265 µM), 1.19; in the test with Bemcentinib + Navitoclax (first compound 4 µM) it was 1.32; with Bemcentinib + Dasatinib (first compound 0.04 µM), 0.366; in the test with Bemcentinib + Dasatinib (first compound 0.1265 µM), 0.356; with Bemcentinib + Dasatinib (first compound 0.4 µM) it was 0.398. Besides, the relative viability worked out at 0.45 with Bemcentinib + Dasatinib (first compound 1.265 µM) and 0.555 in the test with Bemcentinib + Dasatinib (first compound 4 µM).
Regarding COR-L23, the relative viability in the test with Bemcentinib + Pemetrexed (first compound 0.04 µM) was 0.195; with Bemcentinib + Pemetrexed (first compound 0.1265 µM), 0.204; with Bemcentinib + Pemetrexed (first compound 0.4 µM) it was 0.204; with Bemcentinib + Pemetrexed (first compound 1.265 µM), 0.19; with Bemcentinib + Pemetrexed (first compound 4 µM), 0.202; in the test with Bemcentinib + Foretinib (first compound 0.04 µM), 0.949. Further, the relative viability with Bemcentinib + Foretinib (first compound 0.1265 µM) was 1.23; with Bemcentinib + Foretinib (first compound 0.4 µM), 0.969; with Bemcentinib + Foretinib (first compound 1.265 µM) it was 1.08; with Bemcentinib + Foretinib (first compound 4 µM) it was 0.999; in the test with Bemcentinib + Navitoclax (first compound 0.04 µM), 1.14; with Bemcentinib + Navitoclax (first compound 0.1265 µM), 1.11. Further, the relative viability with Bemcentinib + Navitoclax (first compound 0.4 µM) came out at 1.1; with Bemcentinib + Navitoclax (first compound 1.265 µM), 1.03; with Bemcentinib + Navitoclax (first compound 4 µM) it was 1.03; with Bemcentinib + Dasatinib (first compound 0.04 µM), 0.414; with Bemcentinib + Dasatinib (first compound 0.1265 µM), 0.531; in the test with Bemcentinib + Dasatinib (first compound 0.4 µM) it was 0.55. In addition, the relative viability with Bemcentinib + Dasatinib (first compound 1.265 µM) came to 0.359; in the test with Bemcentinib + Dasatinib (first compound 4 µM), 0.482.
As for COR-L 105, the relative viability with Bemcentinib + Pemetrexed (first compound 0.04 µM) came to 0.989; in the test with Bemcentinib + Pemetrexed (first compound 0.1265 µM) it was 1.12; with Bemcentinib + Pemetrexed (first compound 0.4 µM), 1.18; with Bemcentinib + Pemetrexed (first compound 1.265 µM), 0.93; with Bemcentinib + Pemetrexed (first compound 4 µM), 1.03; with Bemcentinib + Foretinib (first compound 0.04 µM), 1.43. In addition, the relative viability was found to be 1.27 with Bemcentinib + Foretinib (first compound 0.1265 µM); 1.01 with Bemcentinib + Foretinib (first compound 0.4 µM); 0.856 in the test with Bemcentinib + Foretinib (first compound 1.265 µM); 0.993 in the test with Bemcentinib + Foretinib (first compound 4 µM); 0.602 with Bemcentinib + Navitoclax (first compound 0.04 µM); 0.733 with Bemcentinib + Navitoclax (first compound 0.1265 µM). Besides, the relative viability in the test with Bemcentinib + Navitoclax (first compound 0.4 µM) came out at 0.794; in the test with Bemcentinib + Navitoclax (first compound 1.265 µM) it was 0.86; in the test with Bemcentinib + Navitoclax (first compound 4 µM), 0.729; in the test with Bemcentinib + Dasatinib (first compound 0.04 µM), 0.317; in the test with Bemcentinib + Dasatinib (first compound 0.1265 µM), 0.328; in the test with Bemcentinib + Dasatinib (first compound 0.4 µM), 0.329. In addition, the relative viability was found to be 0.404 in the test with Bemcentinib + Dasatinib (first compound 1.265 µM) and 0.272 with Bemcentinib + Dasatinib (first compound 4 µM).
In the case of Calu-6, the relative viability with Bemcentinib + Foretinib (first compound 0.04 µM) was 0.93; with Bemcentinib + Foretinib (first compound 0.1265 µM) it was 0.938; with Bemcentinib + Foretinib (first compound 0.4 µM), 0.947; with Bemcentinib + Foretinib (first compound 1.265 µM), 0.917; in the test with Bemcentinib + Foretinib (first compound 4 µM), 0.905; with Bemcentinib + Navitoclax (first compound 0.04 µM), 0.856. Moreover, the relative viability with Bemcentinib + Navitoclax (first compound 0.1265 µM) was found to be 0.856; with Bemcentinib + Navitoclax (first compound 0.4 µM), 1.01; with Bemcentinib + Navitoclax (first compound 1.265 µM), 0.871; with Bemcentinib + Navitoclax (first compound 4 µM), 0.973.
